Measured values published in US10507184B2, “Implantable Naltrexone tablets” (RUSAN PHARMA LIMITED, priority 2015, dated 2019).

Assay: Drug solubility versus pH
Format: physicochemical
Conditions: pH above 7.4
From the text: Media provides sink conditions for maximum release of the drug from pharmaceutical system as well as aids in solubilization of drug for release; therefore, proper selection of media can be important. Media of different pH was used for selection of the correct media for dissolution of the naltrexone implantable tablets. The following five dissolution media were used from pH ranging from 1.2 to 7.4. The pH above 7.4 was not used, as the drug solubility is reduced at pH above 7.4.

O=C1CC[C@@]2(O)[C@H]3Cc4ccc(O)c5c4[C@@]2(CCN3CC2CC2)[C@H]1O5 [Naltrexone, 17-(cyclopropylmethyl)-4,5α-epoxy-3,14-dihydroxymorphinan-6-one]
drug solubility: reduced
